Assays:
Type in all cases: biochemical
[1] = molecular target: T1, papain (Carica papaya, UniProt P00784); assay: Inhibition of papain, incubation method; settings: second-order rate constant, NI = no inhibition; for kinact/KI: pH 7.5, read-out: kobs/[I] papain
T1 sequence (P00784 134-345): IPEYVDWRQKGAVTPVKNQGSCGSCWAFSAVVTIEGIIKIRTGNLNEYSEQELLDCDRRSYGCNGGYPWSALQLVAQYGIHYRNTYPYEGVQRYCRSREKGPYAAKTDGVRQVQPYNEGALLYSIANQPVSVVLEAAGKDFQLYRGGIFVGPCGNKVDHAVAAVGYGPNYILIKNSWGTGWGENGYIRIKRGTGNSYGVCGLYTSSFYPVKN
Experimental: (§1) The release of 7-amino-4-methylcoumarin was monitored (λex=360 nm, λem=465 nm) using a Tecan Spectra Fluor microplate reader. Pseudo first-order inactivation rate constants were obtained from plots of In vt/vo versus time.
The incubation method was also used for papain. The inhibition incubation buffer for papain was 50 mM Hepes buffer at pH 7.5, containing 2.5 mM DTT and 2.5 mM EDTA. The assay used the substrate Z-Phe-Arg-pNA (53.7 μM) in the same buffer. The approximate concentration of papain added to the incubation buffer was 0.29 mg/mL. The release of p-nitroanilide was monitored at 405 nm with a Molecular Devices Thermomax microplate reader.

[2] = system: calpain; assay: Inhibition of calpain; settings: second-order rate constant; NI = no inhibition
[3] = molecular target: cathepsin B (Homo sapiens, UniProt P07858); assay: Inhibition of cathepsin B, incubation method; settings: second-order rate constant, NI = no inhibition; for kinact/KI: pH 6, read-out: kobs/[I] cathepsin B
Description: as §1

[4] = molecular target: T2, caspase-3 (Homo sapiens, UniProt P42574); assay: Caspase-3 progress curve assay; settings: substrate Z-DEVD-AFC; NI = no inhibition
T2 construct: made in house; host or cells: E. coli
T2 sequence (P42574 29-175 limits assumed): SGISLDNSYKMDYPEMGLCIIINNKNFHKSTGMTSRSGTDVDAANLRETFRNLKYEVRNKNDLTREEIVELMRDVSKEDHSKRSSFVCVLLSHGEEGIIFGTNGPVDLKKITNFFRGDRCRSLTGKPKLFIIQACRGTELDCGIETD
T2 sequence (P42574 176-277 limits assumed): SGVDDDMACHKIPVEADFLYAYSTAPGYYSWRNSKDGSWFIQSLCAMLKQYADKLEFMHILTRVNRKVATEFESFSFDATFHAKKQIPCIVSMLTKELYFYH
Outline: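 E. coli-expressed caspases, pre-activated 10 min at 37° C with 10 mM DTT, were added to 100 μM Z-DEVD-AFC plus inhibitor in 50 mM Hepes, 100 mM NaCl, 0.1% CHAPS, 10% sucrose, 10 mM DTT, pH 7.4. AFC fluorescence (ex 400/em 505 nm) was followed; inhibition rates and equilibria came from progress curves.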

[5] = molecular target: T3, caspase-1 (Homo sapiens, UniProt P29466, D381E); assay: Caspase-1 progress curve assay; settings: D381E variant, substrate Ac-YVAD-AMC, 30° C.
T3 construct: His tag (N); made in house; host or cells: E. coli
T3 sequence (P29466 120-297 limits assumed): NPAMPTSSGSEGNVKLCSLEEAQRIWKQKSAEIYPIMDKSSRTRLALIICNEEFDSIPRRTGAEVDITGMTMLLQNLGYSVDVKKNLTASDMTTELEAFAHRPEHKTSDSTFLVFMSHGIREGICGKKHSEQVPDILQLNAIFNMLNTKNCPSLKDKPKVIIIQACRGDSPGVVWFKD
T3 sequence (P29466 317-404 D381E limits assumed): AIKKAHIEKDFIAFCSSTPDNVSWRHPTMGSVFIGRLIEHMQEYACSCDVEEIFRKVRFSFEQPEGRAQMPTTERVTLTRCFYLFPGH
Outline: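 Autolysis-resistant D381E caspase-1 (E. coli, N-His tag), about 2 nM, added with 15 μM Ac-YVAD-AMC in HEPES/glycerol/EDTA buffer with 5 mM DTT to prewarmed compound at 30 °C. AMC fluorescence followed 900 s, triplicate curves fit to irreversible inactivation; kon (M^−1s^−1) from regression slope.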

SMILES	kobs/[I] papain [1]	kobs/[I] cathepsin B [3]	kobs/[I] calpain [2]	other results
CCOC(=O)[C@@H]1O[C@H]1C(=O)N(CC)NC(=O)C(CC(C)C)NC(=O)OCc1ccccc1 (relative stereo) [Cbz-Leu-AAbu-trans-EP-COOEt, trans-3-(N^2-(N-Benzyloxycarbonyleucyl)-N^1-ethylhydrazinocarbonyl)oxirane-2-carboxylic Acid Ethyl Ester]	4.94 M⁻¹ s⁻¹		1.98 M⁻¹ s⁻¹	
CC(C)[C@H](NC(=O)CCc1ccccc1)C(=O)N[C@@H](C)C(=O)NN(CC(=O)O)C(=O)[C@@H]1O[C@H]1C(=O)OCc1ccccc1 (relative stereo) [23d (trans), trans-3-(N^2-(N-3-Phenylpropanoylvalylalanyl)-N^1-carboxylmethylhydrazinocarbonyl)oxirane-2-carboxylic Acid Benzyl Ester]				k2 caspase-3 [4]: 680 ± 140 M⁻¹ s⁻¹; k2 caspase-1 [5]: 18070 ± 2625 M⁻¹ s⁻¹; kinact/KI [3]: < 10 M⁻¹ s⁻¹; kinact/KI [1]: < 10 M⁻¹ s⁻¹
CCOC(=O)[C@@H]1O[C@H]1C(=O)N(CCc1ccccc1)NC(=O)[C@H](CC(C)C)NC(=O)OCc1ccccc1 [Cbz-Leu-AHph-(2R, 3R)-EP-COOEt, (2R,3R)-3-(N^2-(N-Benzyloxycarbonyleucyl)-N^1-phenylethylhydrazinocarbonyl)oxirane-2-carboxylic Acid Ethyl Ester]	2.16 M⁻¹ s⁻¹		2.12 M⁻¹ s⁻¹	
CCOC(=O)[C@H]1O[C@@H]1C(=O)N(CC(C)C)NC(=O)[C@H](CC(C)C)NC(=O)[C@H](CC(C)C)NC(=O)OCc1ccccc1 [Cbz-Leu-Leu-ALeu-(2S, 3S)-EP-COOEt, (2S,3S)-3-(N^2-(N-Benzyloxycarbonylleucylleucyl)-N^1-isobutylhydrazinocarbonyl)oxirane-2-carboxylic Acid Ethyl Ester]			2.48 M⁻¹ s⁻¹	kinact/KI [3]: 0.98 M⁻¹ s⁻¹; kinact/KI [1]: 10.5 M⁻¹ s⁻¹
CCOC(=O)[C@@H]1O[C@H]1C(=O)N(CCc1ccccc1)NC(=O)OCc1ccccc1 (relative stereo) [Cbz-AHph-trans-EP-COOEt, trans-3-(N^2-(N-Benzyloxycarbonyl)-N^1-phenylethylhydrazinocarbonyl)oxirane-2-carboxylic Acid Ethyl Ester]	18.8 M⁻¹ s⁻¹	8.91 M⁻¹ s⁻¹	2.44 M⁻¹ s⁻¹	
CCOC(=O)[C@@H]1O[C@H]1C(=O)N(CCC(N)=O)NC(=O)[C@H](Cc1ccccc1)NC(=O)[C@H](CC(C)C)NC(=O)OCc1ccccc1 (relative stereo) [Cbz-Leu-Phe-AGln-trans-EP-COOEt, trans-3-(N^2-(N-Benzyloxycarbonylleucylphenylalanyl)-N^1-carbamoylethylhydrazinocarbonyl)oxirane-2-carboxylic Acid Ethyl Ester]				kinact/KI [3]: 1.3 M⁻¹ s⁻¹; kinact/KI [1]: 0.9 M⁻¹ s⁻¹
CC(C)C[C@H](NC(=O)OCc1ccccc1)C(=O)NN(CCc1ccccc1)C(=O)[C@H]1O[C@@H]1C(=O)O [Cbz-Leu-AHph-(2S, 3S)-EP-COOH, (2S,3S)-3-(N^2-(N-Benzyloxycarbonyleucyl)-N^1-phenylethylhydrazinocarbonyl)oxirane-2-carboxylic Acid]			2.12 M⁻¹ s⁻¹	
CCOC(=O)[C@H]1O[C@@H]1C(=O)N(CCc1ccccc1)NC(=O)C(CC(C)C)NC(=O)OCc1ccccc1 (stereo partly drawn) [Cbz-Leu-AHph-(2S, 3S)-EP-COOEt, (2S,3S)-3-(N^2-(N-Benzyloxycarbonyleucyl)-N^1-phenylethylhydrazinocarbonyl)oxirane-2-carboxylic Acid Ethyl Ester]	5.68 M⁻¹ s⁻¹	0.67 M⁻¹ s⁻¹	2.28 M⁻¹ s⁻¹	
CCOC(=O)CN(NC(=O)[C@H](C)NC(=O)[C@H](C)NC(=O)OCc1ccccc1)C(=O)[C@@H]1O[C@H]1C(=O)OCC (relative stereo) [Cbz-Ala-Ala-NHN(CH2COOEt)-trans-EP-COOEt, trans-3-(N^2-(N-Benzyloxycarbonylalanylalanyl)-N^1-ethoxycarbonylmethylhydrazinocarbonyl)oxirane-2-carboxylic Acid Ethyl Ester]				kinact/KI [3]: 2.53 M⁻¹ s⁻¹; kinact/KI [1]: 8.17 M⁻¹ s⁻¹
CCOC(=O)[C@@H]1O[C@H]1C(=O)N(CC(C)C)NC(=O)[C@H](CC(C)C)NC(=O)[C@H](CC(C)C)NC(=O)OCc1ccccc1 (relative stereo) [Cbz-Leu-Leu-ALeu-trans-EP-COOEt, trans-3-(N^2-(N-Benzyloxycarbonylleucylleucyl)-N^1-isobutylhydrazinocarbonyl)oxirane-2-carboxylic Acid Ethyl Ester]			2.65 M⁻¹ s⁻¹	kinact/KI [1]: 34.8 M⁻¹ s⁻¹
CCN(NC(=O)[C@H](CC(C)C)NC(=O)OCc1ccccc1)C(=O)[C@@H]1O[C@H]1C(=O)O (relative stereo) [Cbz-Leu-AAbu-trans-EP-COOH, trans-3-(N-(N-Benzyloxycarbonyleucyl)-N^1-ethylhydrazinocarbonyl)oxirane-2-carboxylic Acid]	1.47 M⁻¹ s⁻¹		0.57 M⁻¹ s⁻¹	

Second part, led by results:

kobs/[I] papain [1]	kobs/[I] cathepsin B [3]	SMILES	kobs/[I] calpain [2]	other results
0.38 M⁻¹ s⁻¹	6.27 M⁻¹ s⁻¹	CCOC(=O)[C@@H]1O[C@@H]1C(=O)N(CC(C)C)NC(=O)C(CC(C)C)NC(=O)OCc1ccccc1 (relative stereo) [Cbz-Leu-ALeu-cis-EP-COOEt, cis-3-(N^2-(N-Benzyloxycarbonyleucyl)-N^1-isobutylhydrazinocarbonyl)oxirane-2-carboxylic Acid Ethyl Ester]	1.88 M⁻¹ s⁻¹	
1.03 M⁻¹ s⁻¹		CCOC(=O)[C@@H]1O[C@@H]1C(=O)N(CCc1ccccc1)NC(=O)[C@H](CC(C)C)NC(=O)OCc1ccccc1 (relative stereo) [Cbz-Leu-AHph-cis-EP-COOEt, cis-3-(N-(N-Benzyloxycarbonyleucyl)-N^1-phenylethylhydrazinocarbonyl)oxirane-2-carboxylic Acid Ethyl Ester]	1.09 M⁻¹ s⁻¹	
0.91 M⁻¹ s⁻¹	3.61 M⁻¹ s⁻¹	CCOC(=O)[C@@H]1O[C@H]1C(=O)N(CC(C)C)NC(=O)[C@H](Cc1ccccc1)NC(=O)OCc1ccccc1 (relative stereo) [Cbz-Phe-ALeu-trans-EP-COOEt, trans-3-(N^2-(N-3-Benzyloxyphenylalanyl)-N^1-isobutylhydrazinocarbonyl)oxirane-2-carboxylic Acid Ethyl Ester]		
1.39 M⁻¹ s⁻¹	0.8 M⁻¹ s⁻¹	CCOC(=O)[C@@H]1O[C@H]1C(=O)N(CC(C)C)NC(=O)C(Cc1ccc2ccccc2c1)NC(=O)CCC(=O)O (relative stereo) [Suc-Np2-ALeu-trans-EP-COOEt, trans-3-(N^2-(N-Succinyl-2-naphthylalanyl)-N^1-isobutylhydrazinocarbonyl)oxirane-2-carboxylic Acid Ethyl Ester]		
6.70 M⁻¹ s⁻¹		CCOC(=O)[C@@H]1O[C@H]1C(=O)N(CC(C)C)NC(=O)C(CC(C)C)NC(=O)OCc1ccccc1 (stereo partly drawn) [Cbz-Leu-ALeu-(2R, 3R)-EP-COOEt, (2R,3R)-3-(N^2-(N-Benzyloxycarbonyleucyl)-N^1-isobutylhydrazinocarbonyl)oxirane-2-carboxylic Acid Ethyl Ester]	1.45 M⁻¹ s⁻¹	
10.53 M⁻¹ s⁻¹	1.8 M⁻¹ s⁻¹	CCOC(=O)[C@H]1O[C@@H]1C(=O)N(CC(C)C)NC(=O)C(CC(C)C)NC(=O)OCc1ccccc1 (stereo partly drawn) [Cbz-Leu-ALeu-(2S, 3S)-EP-COOEt, (2S,3S)-3-(N^2-(N-Benzyloxycarbonyleucyl)-N^1-isobutylhydrazinocarbonyl)oxirane-2-carboxylic Acid Ethyl Ester]	8.58 M⁻¹ s⁻¹	
